Laboratory results published in publication PMC9100275, “Development of 1-(4-(Substituted)piperazin-1-yl)-2-((2-((4-methoxybenzyl)thio)pyrimidin-4-yl)oxy)ethanones That Target Poly (ADP-Ribose) Polymerase in Human Breast Cancer Cells” (Molecules, 2022).
Read-outs that look alike come from different tables or passages of the source.

Assays:
PARP1 [1] = biological target: T1, PARP1 (Homo sapiens, UniProt P09874); experiment: colorimetric PARP activity assay with recombinant human PARP enzyme; % inhibition at […] ([…] at […]); format: biochemical
T1 sequence (P09874 2-1014): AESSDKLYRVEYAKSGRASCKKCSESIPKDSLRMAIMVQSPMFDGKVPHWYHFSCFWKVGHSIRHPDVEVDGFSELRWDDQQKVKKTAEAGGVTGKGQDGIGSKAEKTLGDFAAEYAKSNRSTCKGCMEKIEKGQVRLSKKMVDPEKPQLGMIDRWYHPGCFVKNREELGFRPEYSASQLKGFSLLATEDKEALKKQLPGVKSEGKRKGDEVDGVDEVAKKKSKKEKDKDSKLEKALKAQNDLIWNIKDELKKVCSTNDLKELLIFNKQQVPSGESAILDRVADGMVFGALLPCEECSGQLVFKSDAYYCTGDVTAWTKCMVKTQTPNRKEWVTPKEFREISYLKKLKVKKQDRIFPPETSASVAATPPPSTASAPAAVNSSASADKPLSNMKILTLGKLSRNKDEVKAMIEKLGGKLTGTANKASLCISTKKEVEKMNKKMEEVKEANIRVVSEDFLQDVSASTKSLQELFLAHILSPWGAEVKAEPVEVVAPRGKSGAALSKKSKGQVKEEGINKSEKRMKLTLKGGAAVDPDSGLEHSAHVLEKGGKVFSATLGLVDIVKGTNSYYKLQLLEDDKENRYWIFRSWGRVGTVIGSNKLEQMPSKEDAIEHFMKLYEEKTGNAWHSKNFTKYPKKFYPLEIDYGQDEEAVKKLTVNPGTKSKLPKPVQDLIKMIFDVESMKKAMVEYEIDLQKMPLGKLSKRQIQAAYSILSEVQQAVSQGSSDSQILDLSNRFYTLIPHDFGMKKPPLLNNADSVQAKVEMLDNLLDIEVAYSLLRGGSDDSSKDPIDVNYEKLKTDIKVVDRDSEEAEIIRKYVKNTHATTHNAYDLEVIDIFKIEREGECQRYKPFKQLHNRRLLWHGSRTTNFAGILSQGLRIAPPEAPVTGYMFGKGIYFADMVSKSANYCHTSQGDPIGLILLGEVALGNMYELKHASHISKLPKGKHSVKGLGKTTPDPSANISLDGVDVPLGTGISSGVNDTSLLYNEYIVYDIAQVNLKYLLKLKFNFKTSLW

PARP1 [2] = biological target: T1, PARP1; experiment: as above; format: biochemical; remark: listed apart in the source

inhibition at 10 µM (PARP1 [1]) [%]	inhibition at 10 µM (PARP1 [2]) [%]	Structure (SMILES)
70.3		COc1ccc(CSc2nccc(OCC(=O)N3CCN(c4cccc(Cl)c4Cl)CC3)n2)cc1 [5a, 1-(4-(2,3-Dichlorophenyl)piperazin-1-yl)-2-((2-((4-methoxybenzyl)thio)pyrimidin-4-yl)oxy)ethanone]
	53	COc1ccc(CSc2nccc(OCC(=O)N3CCN(c4ccc(C)cc4)CC3)n2)cc1 [5e, 2-((2-((4-Methoxybenzyl)thio)pyrimidin-4-yl)oxy)-1-(4-(p-tolyl)piperazin-1-yl)ethanone]
